From ChEMBL document CHEMBL4043212, “Design, synthesis and biological evaluation of 1,3-diphenylbenzo[f][1,7]naphthyrdines” (2017)

Legend:
NCI-H23 = test: Cytotoxicity against human NCI-H23 cells assessed as inhibition of cell growth incubated for 72 hrs by SRB assay; type: functional
HCT-15 = test: Cytotoxicity against human HCT15 cells assessed as inhibition of cell growth incubated for 72 hrs by SRB assay; type: functional
NUGC-3 = test: Cytotoxicity against human NUGC3 cells assessed as inhibition of cell growth incubated for 72 hrs by SRB assay; type: functional
ACHN = test: Cytotoxicity against human ACHN cells assessed as inhibition of cell growth incubated for 72 hrs by SRB assay; type: functional
PC-3 = test: Cytotoxicity against human PC3 cells assessed as inhibition of cell growth incubated for 72 hrs by SRB assay; type: functional
MDA-MB-231 = test: Cytotoxicity against human MDA-MB-231 cells assessed as inhibition of cell growth incubated for 72 hrs by SRB assay; type: functional
[1] = biological target: DNA topoisomerase 2-alpha (Homo sapiens) (UniProt P11388); test: Inhibition of human topoisomerase-2 alpha assessed as reduction in conversion of super coiled plasmid DNA to relaxed DNA at 100 uM using supercoiled pBR322 DNA as substrate after 30 mins by ethidium bromide staining based agarose gel electrophoresis method relative to control
[2] = biological target: DNA topoisomerase 2-alpha (Homo sapiens) (UniProt P11388); test: Inhibition of human topoisomerase-2 alpha assessed as reduction in conversion of super coiled plasmid DNA to relaxed DNA at 20 uM using supercoiled pBR322 DNA as substrate after 30 mins by ethidium bromide staining based agarose gel electrophoresis method relative to control
[3] = biological target: DNA topoisomerase 2-alpha (Homo sapiens) (UniProt P11388); test: Potency index, ratio of inhibitory activity of etoposide to test compound for inhibition of human topoisomerase-2 alpha at 100 uM using supercoiled pBR322 DNA as substrate after 30 mins by ethidium bromide staining based agarose gel electrophoresis method relative to control
[4] = biological target: DNA topoisomerase 2-alpha (Homo sapiens) (UniProt P11388); test: Potency index, ratio of inhibitory activity of etoposide to test compound for inhibition of human topoisomerase-2 alpha at 20 uM using supercoiled pBR322 DNA as substrate after 30 mins by ethidium bromide staining based agarose gel electrophoresis method relative to control

Chain of DNA topoisomerase 2-alpha (Homo sapiens) (P11388 whole entry): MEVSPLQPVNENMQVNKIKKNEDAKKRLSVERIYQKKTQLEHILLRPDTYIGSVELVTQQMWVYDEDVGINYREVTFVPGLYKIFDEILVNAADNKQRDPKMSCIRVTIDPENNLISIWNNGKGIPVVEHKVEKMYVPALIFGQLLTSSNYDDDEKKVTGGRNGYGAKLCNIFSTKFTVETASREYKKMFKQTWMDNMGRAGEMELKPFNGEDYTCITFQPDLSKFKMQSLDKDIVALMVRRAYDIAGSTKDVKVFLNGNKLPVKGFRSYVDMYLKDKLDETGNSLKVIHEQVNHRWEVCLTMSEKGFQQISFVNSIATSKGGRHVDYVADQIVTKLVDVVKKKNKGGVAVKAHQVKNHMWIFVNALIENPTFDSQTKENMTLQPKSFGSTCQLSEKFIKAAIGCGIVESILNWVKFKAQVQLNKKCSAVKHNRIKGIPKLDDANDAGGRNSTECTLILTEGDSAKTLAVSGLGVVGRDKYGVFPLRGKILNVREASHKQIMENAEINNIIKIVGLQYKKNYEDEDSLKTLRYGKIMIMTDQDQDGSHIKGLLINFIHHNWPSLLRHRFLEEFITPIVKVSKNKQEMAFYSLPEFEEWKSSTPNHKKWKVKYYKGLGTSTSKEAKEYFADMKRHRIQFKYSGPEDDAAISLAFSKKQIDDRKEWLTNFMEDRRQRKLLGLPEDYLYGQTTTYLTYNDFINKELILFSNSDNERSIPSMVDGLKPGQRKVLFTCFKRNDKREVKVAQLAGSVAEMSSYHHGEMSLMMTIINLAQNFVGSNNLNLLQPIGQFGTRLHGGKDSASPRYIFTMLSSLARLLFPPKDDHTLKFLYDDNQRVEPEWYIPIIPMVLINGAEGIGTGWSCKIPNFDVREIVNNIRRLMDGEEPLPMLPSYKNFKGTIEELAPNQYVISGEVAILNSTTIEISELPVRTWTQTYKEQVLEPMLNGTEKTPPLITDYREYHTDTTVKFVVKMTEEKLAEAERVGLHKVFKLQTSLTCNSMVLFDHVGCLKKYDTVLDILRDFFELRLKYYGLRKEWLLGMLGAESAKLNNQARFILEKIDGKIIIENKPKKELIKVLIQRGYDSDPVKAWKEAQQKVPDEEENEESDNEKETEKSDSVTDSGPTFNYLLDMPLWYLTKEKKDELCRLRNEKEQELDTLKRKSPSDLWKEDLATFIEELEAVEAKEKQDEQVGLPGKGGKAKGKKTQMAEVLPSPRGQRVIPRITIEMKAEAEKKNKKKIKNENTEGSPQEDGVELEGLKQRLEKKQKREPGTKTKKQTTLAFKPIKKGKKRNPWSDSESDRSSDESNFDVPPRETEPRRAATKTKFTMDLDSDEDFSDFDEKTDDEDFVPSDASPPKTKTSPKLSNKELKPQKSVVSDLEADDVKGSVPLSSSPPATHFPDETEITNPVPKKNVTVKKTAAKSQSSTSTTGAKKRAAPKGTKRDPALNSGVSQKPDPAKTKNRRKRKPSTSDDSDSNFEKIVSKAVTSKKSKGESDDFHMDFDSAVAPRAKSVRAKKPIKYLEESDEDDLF

| Compound | GI50 (NCI-H23; Homo sapiens, NCI-H23, 72 h) [nM] | GI50 (HCT-15; Homo sapiens, HCT-15, 72 h) [µM] | GI50 (NUGC-3; Homo sapiens, NUGC-3, 72 h) [nM] | GI50 (ACHN; Homo sapiens, ACHN, 72 h) [µM] | GI50 (PC-3; Homo sapiens, PC-3, 72 h) [µM] | GI50 (MDA-MB-231; Homo sapiens, MDA-MB-231, 72 h) [µM] | GI50 (NCI-H23) [nM] | GI50 (HCT-15) [µM] | GI50 (NUGC-3) [nM] | GI50 (ACHN) [µM] | GI50 (PC-3) [µM] | GI50 (MDA-MB-231) [µM] | inhibition [1] [%] | inhibition [2] [%] | Ratio [3] | Ratio [4] |
| --- | --- | --- | --- | --- | --- | --- | --- | --- | --- | --- | --- | --- | --- | --- | --- | --- |
| COc1ccc(-c2cc(-c3ccc(OC)c4ccccc34)nc3cnc4ccccc4c23)cc1 | > 10000 | > 10 | > 10000 | > 10 | > 10 | > 10 | – | – | – | – | – | – | – | – | – | – |
| COc1ccc(-c2cc(-c3cccc4ccccc34)nc3cnc4ccccc4c23)cc1 [listing 1 of 2 here] | – | – | – | – | – | – | 1810 | 1.98 | 1680 | 2.25 | 1.57 | 1.51 | – | – | – | – |
| COc1ccc(-c2cc(-c3ccccc3Br)nc3cnc4ccccc4c23)cc1 | > 10000 | > 10 | > 10000 | > 10 | > 10 | > 10 | – | – | – | – | – | – | – | – | – | – |
| COc1ccc(-c2cc(-c3ccc(Br)cc3)nc3cnc4ccccc4c23)cc1 | 1620 | 1.97 | 1850 | 4.95 | 6.75 | 2.58 | – | – | – | – | – | – | – | – | – | – |
| COc1ccc(-c2cc(-c3ccc4ccccc4c3)nc3cnc4ccccc4c23)cc1 | > 10000 | > 10 | > 10000 | > 10 | > 10 | > 10 | – | – | – | – | – | – | – | – | – | – |
| COc1ccc(-c2cc(-c3ccc(Cl)cc3)nc3cnc4ccccc4c23)cc1 | 1700 | 4.82 | 2170 | 1.69 | 1.53 | 2.94 | – | – | – | – | – | – | 3 | – | – | – |
| COc1cccc2c1C(=O)c1c(O)c3c(c(O)c1C2=O)C[C@@](O)(C(=O)CO)C[C@@H]3O[C@H]1C[C@H](N)[C@H](O)[C@H](C)O1 [DOXORUBICIN] | 90 | 0.077 | 86 | 0.08 | 0.076 | 0.068 | – | – | – | – | – | – | – | – | – | – |
| COc1ccc(-c2cc(-c3ccc(OC)cc3)c3c(cnc4ccccc43)n2)cc1 | > 10000 | > 10 | > 10000 | > 10 | > 10 | > 10 | – | – | – | – | – | – | – | – | – | – |
| COc1ccc(-c2cc(-c3ccccc3Cl)nc3cnc4ccccc4c23)cc1 | 2550 | 2.15 | 3000 | 3.27 | 4.46 | 3.32 | – | – | – | – | – | – | – | – | – | – |
| COc1ccc(-c2cc(-c3cccc4ccccc34)nc3cnc4ccccc4c23)cc1 [listing 2 of 2 here] | 1650 | 2.72 | 2160 | – | – | 2.81 | – | – | – | 5.36 | 3.38 | – | – | – | – | – |
| COc1ccc(-c2cc(-c3cccc(C#N)c3)nc3cnc4ccccc4c23)cc1 | 1890 | 1.79 | 2030 | 3.86 | 3.15 | 1.79 | – | – | – | – | – | – | 0.2 | – | – | – |
| COc1ccc(-c2cc(-c3ccccc3[N+](=O)[O-])nc3cnc4ccccc4c23)cc1 | > 10000 | > 10 | > 10000 | > 10 | > 10 | > 10 | – | – | – | – | – | – | – | – | – | – |
| COc1ccc(-c2cc(-c3cccs3)nc3cnc4ccccc4c23)cc1 | 3300 | 7.06 | 2000 | 5.65 | 6.88 | 7.69 | – | – | – | – | – | – | – | – | – | – |
| COc1ccc(-c2cc(-c3ccc(C(F)(F)F)cc3)nc3cnc4ccccc4c23)cc1 | > 10000 | > 10 | > 10000 | > 10 | > 10 | > 10 | – | – | – | – | – | – | – | – | – | – |
| COc1ccc(-c2cc(-c3ccc(C(F)(F)F)cc3C(F)(F)F)nc3cnc4ccccc4c23)cc1 | > 10000 | > 10 | > 10000 | > 10 | > 10 | > 10 | – | – | – | – | – | – | – | – | – | – |
| COc1ccc(-c2cc(-c3ccc([N+](=O)[O-])cc3)nc3cnc4ccccc4c23)cc1 [listing 1 of 2 here] | – | – | – | – | – | – | 2420 | 4.37 | 2870 | 3.92 | 3.59 | 3.49 | – | – | – | – |
| COc1ccc(-c2cc(-c3ccc(N(C)C)cc3)nc3cnc4ccccc4c23)cc1 | 1720 | 1.86 | 1950 | 1.98 | 2.98 | 2.3 | – | – | – | – | – | – | 91.3 | 42.4 | 1.3 | 1.2 |
| COc1ccc(-c2cc(-c3ccc([N+](=O)[O-])cc3)nc3cnc4ccccc4c23)cc1 [listing 2 of 2 here] | – | – | – | – | – | – | > 10000 | > 10 | > 10000 | > 10 | > 10 | > 10 | – | – | – | – |
| CCCCCCn1cc(-c2cc(-c3ccc(OC)cc3)c3c(cnc4ccccc43)n2)c2ccccc21 | > 10000 | > 10 | > 10000 | > 10 | > 10 | > 10 | – | – | – | – | – | – | – | – | – | – |
| COc1ccc(-c2cc(-c3ccccc3)nc3cnc4ccccc4c23)cc1 | 4020 | 4.38 | 5830 | 2.13 | 3.07 | 7.28 | – | – | – | – | – | – | – | – | – | – |
| COc1ccc(-c2c(C)c(-c3ccccc3Br)nc3cnc4ccccc4c23)cc1 | > 10000 | > 10 | > 10000 | > 10 | > 10 | > 10 | – | – | – | – | – | – | – | – | – | – |
| CCn1cc(-c2cc(-c3ccc(OC)cc3)c3c(cnc4ccccc43)n2)c2ccccc21 | 2070 | 4.88 | 3030 | 5.61 | 6.15 | 3.04 | – | – | – | – | – | – | – | – | – | – |
